# Reference: patent US20230045151A1, “COMPOSITIONS AND METHODS” (MONASH UNIVERSITY, priority 2020, published 2023)
# Tested on: lung DCs
# Experiment: In vivo tracking of DCs after intranasal fluorescently labelled HDM
# Set-up: species or system mouse
# Conditions: L-tyrosine-treated mice, intranasal HDM-AF647
# Protocol: Mediastinal lymph nodes were filtered through a 40 μm cell strainer, washed with PBS supplemented with 1% fetal bovine serum and 2 mM EDTA (Invitrogen) (MACS buffer). Lungs were finely cut with scissors, digested with Collagenase IV (Gibco™) in Iscove's modified Dulbecco's medium (IMDM, Gibco™) for 50 min at 37° C. and processed as the lymph nodes. Cell counts were determined with Coulter Counter and […] were stained with freshly prepared antibody mix in MACS buffer for 20 minutes at 4° C. in a 96-well round-bottom plates (Costar). Dendritic cells were identified using monoclonal antibodies against CD11c-phycoerythrin (PE)/Cy7 (Biolegend, cat nr 117318; diluted 1:400 in MACS buffer), SiglecF-Alexa Fluor (AF) 647 (BD Biosciences™, 562680; 1:400) and MHC-II-AF700 (Biolegend, 107622, 1:800). DC activation was assessed using antibodies against PD-L2-PE (Biolegend, 107205; 1:200), CD80− Brilliant Violet (BV)-605 (Biolegend, 104729; 1:200) and CD86-BV650 (Biolegend, 105035; 1:200). T helper cells were identified using antibodies against CD3c-Pacific Blue (PB) (Biolegend, 100214; 1:800) and CD4− PerCP-Cy5.5 (Biolegend, 100434; 1:800). Activated T helper cells were identified using anti-CD44-PE antibody (BD Biosciences™, 553134, 1: 400) A regulatory subset of T helper cells (Tregs) was identified with the addition of anti-CD25-AF700 (Biolegend, 102024; 1:200) and anti-Foxp3-AF647 (Biolegend, 126408; 1:200) antibodies. For the latter, an intracellular staining was performed, where cells were incubated with anti-Foxp3 antibody diluted in 0.5% saponin from Quillaja bark (Sigma-Aldrich) for 40 minutes at 4° C. B cells were identified with anti-CD19-PE/Cy7 (eBioscience, 25-0193; 1:200) and anti-B220-FITC (Biolegend, 103206; 1:200). When indicated, HEL and HDM were labelled with Alexa Fluor 647 antibody labelling kit (Invitrogen™) and separated from the unlabelled dye with the use of PD-10 desalting columns (GE Healthcare). […] Samples were analyzed with FlowJo 10.4.2 software (Tree Star Inc., Ashland, Oreg.). […]
smiles,measurement,value
N[C@@H](Cc1ccc(O)cc1)C(=O)O [L-tyrosine],"activation of lung DCs (surface CD80, CD86, PD-L2)",impairment
same,antigen (HDM) uptake by lung DCs,modest effect
same,migratory capacity of DCs (frequency of HDM+ DCs in the draining LNs),decreased
